{"source": "patent US8263538B2", "about": "“Personal wash cleanser with mild surfactant systems comprising defined alkanoyl compounds and defined fatty acyl isethionate surfactant product” (priority 2010, dated 2012)", "tested_on": "intrascapular area of the back", "experiment": "14-day cumulative irritation Patch Test (occlusive patch, cleansers diluted to 25% w/w)", "settings": "for Patch test Total irritation score: higher score = more irritating", "procedure": "This was randomized, double-blind study. A sufficient number of subjects were recruited to ensure that 25 subjects completed the study. The 14-day cumulative irritation test was conducted as follows. Patching occurred for 14 consecutive days, except on Sundays. Patches applied on Saturday were left in place until Monday, when freshly prepared patches were applied. The designated patch test sites were approximately 2 cm×2 cm on the intrascapular area of the back. Approximately 0.2 mL of the test product was placed onto a Parke-Davis Readi-Bandage® occlusive patch that measured 2 cm×2 cm. Solutions were made by diluting the cleansers to 25% w/w in distilled water. The patch was then applied to the designated test site. The patches were secured with hypoallergenic tape (Scanpor {Allerderm} as needed). A 0.5% sodium dodecyl sulfate (SDS) solution was used as the control in the test.\nEach day following application, the patches were removed, the sites evaluated and identical patches reapplied to the same test sites. All evaluations were made using the following 6-point scoring system: • 0=No evidence of any effect • +=Barely perceptible (minimal, faint, uniform or spotty erythema) numerically equivalent to 0.5 • 1=Mild (pink, uniform erythema covering most of the contact site) • 2=Moderate (pink-red, erythema uniform in the entire contact site) • 3=Marked (bright red erythema with/without petechiae or papules) • 4=Severe (deep red erythema with/without vesiculation or weeping)\nIf a dermal reaction of 3 or 4 occur with any of the test articles at any point during the study, further patch testing on that subject was terminated at the test site involved, and the attained score was assigned to that site for the subsequent scheduled test days.\nCumulative irritation scores, which were the sum of the numerical irritation grades assigned daily during the 14-day test period, were calculated at the end of the study to compare mildness of the test products. […] The data were statistically analyzed using Tukey-Kramer Comparison, and statistical significance was determined at the 95% confidence level.", "key": {"[1]": {"settings": "first series of Table 1 (0.5% SDS control = 783)"}, "[2]": {"settings": "second series of Table 1 (0.5% SDS control = 912)"}}, "data": [{"compound": "CCCCCCCCCCCCOS(=O)(=O)[O-].[Na+]", "note": "[0.5% SDS Solution, sodium dodecyl sulfate]", "values": [{"measurement": "Total irritation score compared to 0.5% SDS solution", "setting": "[1]", "value": 100, "unit": "%"}, {"measurement": "Patch test Total irritation score", "setting": "[1]", "value": 783}, {"measurement": "Total irritation score compared to 0.5% SDS solution", "setting": "[2]", "value": 100, "unit": "%"}, {"measurement": "Patch test Total irritation score", "setting": "[2]", "value": 912}]}]}
